The results in this text go back to paper PMC6627609, “Targeting Quorum Sensing: High-Throughput Screening to Identify Novel LsrK Inhibitors” (International Journal of Molecular Sciences, 2019).

Counter-ions that a name gives are not always drawn.

The inhibition is the relative decrease from the control value, in per cent.

The target in the first test is LsrK (Salmonella typhimurium, UniProt Q8ZKQ6). The experiment in a line: biochemical. It counts as biochemical, S. typhimurium.
Chain of LsrK (Q8ZKQ6 whole entry): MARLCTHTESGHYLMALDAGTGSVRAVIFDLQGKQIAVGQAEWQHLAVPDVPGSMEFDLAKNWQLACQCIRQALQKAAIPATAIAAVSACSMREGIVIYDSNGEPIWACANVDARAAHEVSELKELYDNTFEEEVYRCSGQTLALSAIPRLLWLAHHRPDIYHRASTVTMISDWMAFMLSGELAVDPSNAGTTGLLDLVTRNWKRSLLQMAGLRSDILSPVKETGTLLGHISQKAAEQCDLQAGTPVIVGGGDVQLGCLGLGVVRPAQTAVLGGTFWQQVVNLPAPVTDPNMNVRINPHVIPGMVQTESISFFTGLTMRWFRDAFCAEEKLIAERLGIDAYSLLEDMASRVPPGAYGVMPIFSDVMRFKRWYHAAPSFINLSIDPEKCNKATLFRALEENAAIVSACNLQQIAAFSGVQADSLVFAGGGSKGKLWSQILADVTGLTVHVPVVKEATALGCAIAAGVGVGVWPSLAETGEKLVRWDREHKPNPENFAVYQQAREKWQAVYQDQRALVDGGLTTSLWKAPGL
Conditions: not given
Consider `CCCCCCCCCCCCCCCC[N+](C)(C)C` [CETRIMONIUM BROMIDE], for which the inhibition at 50 µM was 125%. Consider `C[C@H](CCC(=O)O)[C@H]1CC[C@H]2[C@@H]3[C@H](O)C[C@@H]4C[C@H](O)CC[C@]4(C)[C@H]3CC[C@]12C` [CHENODIOL], for which the inhibition at 50 µM is 2%. In the case of `COc1cc(-c2ccc(/N=N/c3ccc4c(S(=O)(=O)O)cc(S(=O)(=O)O)c(N)c4c3O)c(OC)c2)ccc1/N=N/c1ccc2c(S(=O)(=O)O)cc(S(=O)(=O)O)c(N)c2c1O` [CHICAGO SKY BLUE], the inhibition at 50 µM was 41%. As for `OC[C@@H](O)[C@H]1O[C@@H]2O[C@H](C(Cl)(Cl)Cl)O[C@@H]2[C@H]1O` [CHLORALOSE], the inhibition at 50 µM came out at 1%.

Consider `CC(=O)O[C@]1(C(C)=O)CC[C@H]2[C@@H]3C=C(Cl)C4=CC(=O)CC[C@]4(C)[C@H]3CC[C@@]21C` [CHLORMADINONE ACETATE], for which the inhibition at 50 µM came out at 1%.

In the case of `[H]/N=C(\N/C(=N/[H])Nc1ccc(Cl)cc1)NC(C)C` [CHLOROGUANIDE HYDROCHLORIDE], the inhibition at 50 µM was determined as 1%. The same measure, in the same setting: the result for `NS(=O)(=O)c1cc2c(cc1Cl)N=CNS2(=O)=O` [CHLOROTHIAZIDE] reads 0%. `Oc1c(Cl)cc(Cl)c2cccnc12` [CHLOROXINE]: the inhibition at 50 µM was 13%.

On to `CCCNC(=O)NS(=O)(=O)c1ccc(Cl)cc1` [CHLORPROPAMIDE], for which the inhibition at 50 µM was 1%. Consider `CN(C)CC/C=C1/c2ccccc2Sc2ccc(Cl)cc21` [CHLORPROTHIXENE HYDROCHLORIDE], for which the inhibition at 50 µM was 2%. For the molecule `CCOP(=S)(OCC)Oc1nc(Cl)c(Cl)cc1Cl` [CHLORPYRIFOS], the inhibition at 50 µM was found to be 0%. `Cc1ccc2c(Cl)cc(Cl)c(O)c2n1` [CHLORQUINALDOL]: the inhibition at 50 µM came out at 0%.

On to `CN(C)[C@@H]1C(O)=C(C(N)=O)C(=O)[C@@]2(O)C(O)=C3C(=O)c4c(O)ccc(Cl)c4[C@@](C)(O)[C@H]3C[C@@H]12` [CHLORTETRACYCLINE HYDROCHLORIDE], for which the inhibition at 50 µM turned out to be 77%. With `C[C@H](CCC(=O)O)[C@H]1CC[C@H]2[C@@H]3CCC4CCCC[C@]4(C)[C@H]3C=C[C@]12C` (some centres unmarked) [CHOL-11-ENIC ACID], the inhibition at 50 µM was 45%.

With `C=C1CC[C@H](O)C/C1=C/C=C1\CCC[C@]2(C)[C@@H]([C@H](C)CCCC(C)C)CC[C@@H]12` [CHOLECALCIFEROL], the inhibition at 50 µM was 90%. Turning to `CC(C)CCC[C@@H](C)[C@H]1CC[C@H]2[C@@H]3CC=C4C[C@@H](O)CC[C@]4(C)[C@H]3CC[C@]12C` [CHOLESTEROL], the inhibition at 50 µM is 0%.

For the molecule `C[C@H](CCC(=O)O)[C@H]1CC[C@H]2[C@@H]3[C@H](O)C[C@@H]4C[C@H](O)CC[C@]4(C)[C@H]3C[C@H](O)[C@]12C` [CHOLIC ACID], the inhibition at 50 µM was 0%.

As to `COc1cc(OC)c2c(=O)cc(-c3ccccc3)oc2c1` [CHRYSIN DIMETHYL ETHER], the inhibition at 50 µM is 1%. As to `O=c1cc(-c2ccccc2)oc2cc(O)cc(O)c12` [CHRYSIN], the inhibition at 50 µM was determined as 3%.

As to `Cc1cc(O)c2c(c1)C(=O)c1cccc(O)c1C2=O` [CHRYSOPHANOL], the inhibition at 50 µM amounted to 1%. Same read-out and setting: for `COC(=O)C[C@H]1C2(C)CC34OC5(C)O[C@@]6([C@H](OC)C(OC(=O)C(C)C)[C@]7(C)C(/C(=C(/OC)C(C)C)C(=O)O[C@H]7c7ccoc7)[C@@]6(O5)[C@H](OC)[C@@]3(OC)C2OC(C)=O)[C@]14C` (some centres unmarked) [CHUKRASIN METHYL ETHER] the value was 1%; for `O=C(O)CCCCCCCCCCCC[C@@H]1C=CCC1` [CH[…]], 156%; for `O=C1CCc2cc(OCCCCc3nnnn3C3CCCCC3)ccc2N1` [CILOSTAZOL], 2%.

Consider `C=C[C@H]1CN2CC[C@H]1C[C@H]2[C@H](O)c1ccnc2ccccc12` [CINCHONIDINE], for which the inhibition at 50 µM came out at 0%.

Turning to `C=C[C@H]1C[N@@]2CC[C@H]1C[C@@H]2[C@@H](O)c1ccnc2ccccc12` [CINCHONINE], the inhibition at 50 µM came out at 1%. Regarding `O=C(O)c1cc(-c2ccccc2)nc2ccccc12` [CINCHOPHEN], the inhibition at 50 µM was found to be 6%. As for `CC12CCC(CC1)C(C)(C)O2` [CINEOLE], the inhibition at 50 µM was found to be 1%. Regarding `O=C(O)c1cn(C2CC2)c2cc(N3CCNCC3)c(F)cc2c1=O` [CIPROFLOXACIN], the inhibition at 50 µM worked out at 1%. For `CC[C@H]1OC(=O)[C@H](C)[C@@H](O[C@H]2C[C@@](C)(OC)[C@@H](O)[C@H](C)O2)[C@H](C)[C@@H](O[C@@H]2O[C@H](C)C[C@H](N(C)C)[C@H]2O)[C@](C)(OC)C[C@@H](C)C(=O)[C@H](C)[C@@H](O)[C@]1(C)O` [CLARITHROMYCIN], the inhibition at 50 µM was 0%. Turning to `CCC[C@@H]1C[C@@H](C(=O)N[C@@H]([C@H]2O[C@H](SC)[C@H](O)[C@@H](O)[C@H]2O)[C@H](C)Cl)N(C)C1` [CLINDAMYCIN HYDROCHLORIDE], the inhibition at 50 µM was 0%. Regarding `Oc1c(I)cc(Cl)c2cccnc12` [CLIOQUINOL], the inhibition at 50 µM amounted to 1%. For the molecule `CCC(=O)O[C@]1(C(=O)CCl)[C@@H](C)C[C@H]2[C@@H]3CCC4=CC(=O)C=C[C@]4(C)[C@@]3(F)[C@@H](O)C[C@@]21C` [CLOBETASOL PROPIONATE], the inhibition at 50 µM amounted to 2%. Regarding `CC(C)/N=c1\cc2n(-c3ccc(Cl)cc3)c3ccccc3nc-2cc1Nc1ccc(Cl)cc1` [CLOFAZIMINE], the inhibition at 50 µM was 0%.

On to `CC(C)(C)CC(C)(C)c1ccc(O)c(Cc2ccc(Cl)cc2Cl)c1` [CLOFOCTOL], for which the inhibition at 50 µM worked out at 2%. In the case of `COC(=O)[C@H](c1ccccc1Cl)N1CCc2sccc2C1` [CLOPIDOGREL SULFATE], the inhibition at 50 µM was found to be 11%. Consider `Cc1nc(C)c(Cl)c(O)c1Cl` [CLOPIDOL], for which the inhibition at 50 µM was determined as 2%. In the case of `C=C[C@@]1(C)CC(=O)[C@]2(O)[C@@]3(C)[C@@H](O)CCC(C)(C)[C@@H]3[C@H](O)[C@H](OC(C)=O)[C@@]2(C)O1` [COLFORSIN], the inhibition at 50 µM is 1%. As to `C[C@H]1[C@H]2CC[C@H]3[C@@H]4CC=C5C[C@@H](N(C)C)CC[C@]5(C)[C@H]4CC[C@]23CN1C` [CONESSINE], the inhibition at 50 µM was found to be 2%. Turning to `C[C@@H]1O[C@@H](O[C@H]2CC[C@]3(C=O)[C@H]4CC[C@]5(C)[C@@H](C6=CC(=O)OC6)CC[C@]5(O)[C@@H]4CC[C@]3(O)C2)[C@H](O)[C@H](O)[C@H]1O` [CONVALLATOXIN], the inhibition at 50 µM stood at 1%. Turning to `COc1c2c(cc3c1OCO3)CC[N+](C)=C2` [COTARNINE CHLORIDE], the inhibition at 50 µM came out at 2%. `C[C@H]1COC2=C1C(=O)C(=O)c1c2ccc2c1CCCC2(C)C` [CRYPTOTANSHINONE]: the inhibition at 50 µM was 16%. With `COc1cc(/C=C/C(=O)CC(=O)/C=C/c2ccc(O)c(OC)c2)ccc1O` [CURCUMIN], the inhibition at 50 µM was determined as 1%.

With `NC1=NCCN1CC(=O)O` [CYCLOCREATINE], the inhibition at 50 µM is 0%.

For `N[C@@H]1CON=C1O` [CYCLOSERINE], the inhibition at 50 µM came out at 0%. Regarding `CC1(C)C(C=C(Cl)Cl)C1C(=O)OC(C#N)c1cccc(Oc2ccccc2)c1` (centres unmarked) [CYPERMETHRIN], the inhibition at 50 µM was found to be 3%. In the case of `CC(=O)O[C@]1(C(C)=O)CC[C@H]2[C@@H]3C=C(Cl)C4=CC(=O)[C@@H]5C[C@@H]5[C@]4(C)[C@H]3CC[C@@]21C` [CYPROTERONE ACETATE], the inhibition at 50 µM came to 0%. Take `O=c1cccc2n1C[C@@H]1CNC[C@H]2C1` [CYTISINE]: the inhibition at 50 µM came out at 3%. Consider `CN(C)/N=N/c1[nH]cnc1C(N)=O` [DACARBAZINE], for which the inhibition at 50 µM amounted to 3%. For the molecule `C=CC(C1=CC(=O)C=CC1=O)c1ccccc1` (centres unmarked) [DALBERGIONE], the inhibition at 50 µM is 91%. Consider `O=C1c2cccc(O)c2C(=O)c2c(O)cccc21` [DANTHRON], for which the inhibition at 50 µM was 1%. Consider `O=C1CN(/N=C/c2ccc(-c3ccc([N+](=O)[O-])cc3)o2)C(O)=N1` [DANTROLENE SODIUM], for which the inhibition at 50 µM came out at 3%. Turning to `Nc1ccc(S(=O)(=O)c2ccc(N)cc2)cc1` [DAPSONE], the inhibition at 50 µM stood at 0%.

On to `NC(=O)C(c1ccccc1)(c1ccccc1)[C@@H]1CCN(CCc2ccc3c(c2)CCO3)C1` [DARIFENACIN HYDROBROMIDE], for which the inhibition at 50 µM was determined as 2%. For `COc1cccc2c1C(=O)c1c(O)c3c(c(O)c1C2=O)C[C@@](O)(C(C)=O)C[C@@H]3O[C@H]1C[C@H](N)[C@H](O)[C@H](C)O1` [DAUNORUBICIN], the inhibition at 50 µM came to 2%.

For the molecule `CC1(C)C(=O)C=C[C@]2(C)[C@H]3CC[C@@]4(C)[C@H](c5ccoc5)OC(=O)[C@H]5O[C@]54[C@]3(C)C(=O)C[C@@H]12` [DEACETOXY-7-OXOGEDUNIN], the inhibition at 50 µM is 2%. On the same count and under the same terms, the result for `CC1(C)C(=O)C=C[C@]2(C)[C@H]3CC[C@@]4(C)[C@H](c5ccoc5)OC(=O)[C@H]5O[C@]54[C@]3(C)[C@H](O)C[C@@H]12` [DEACETYLGEDUNIN] reads 1%; that for `C[N+](C)(C)CCCCCCCCCC[N+](C)(C)C` [DECAMETHONIUM BROMIDE], 0%.

As for `CCCCCCCCCCOc1cc2c(O)c(C(=O)OCC)cnc2cc1OCC` [DECOQUINATE], the inhibition at 50 µM is 36%.

Consider `CC(=O)N(O)CCCCCNC(=O)CCC(=O)N(O)CCCCCNC(=O)CCC(=O)N(O)CCCCCN` [DEFEROXAMINE MESYLATE], for which the inhibition at 50 µM came to 1%.

The same test, now with this note: 50 µM.
For the molecule `N.N.[Cl][Pt][Cl]` [CISPLATIN], the “Inhibition (%)” value is 2. Consider `C/C1=C2/[N-][C@H]([C@H](CC(N)=O)[C@@]2(C)CCC(=O)NC[C@@H](C)OP(=O)([O-])O[C@H]2[C@@H](O)[C@@H](n3cnc4cc(C)c(C)cc43)O[C@@H]2CO)[C@]2(C)N=C(/C(C)=C3N=C(/C=C4N=C1[C@@H](CCC(N)=O)C\4(C)C)[C@@H](CCC(N)=O)[C@]\3(C)CC(N)=O)[C@@H](CCC(N)=O)[C@]2(C)CC(N)=O.[CH2-][C@H]1O[C@@H](n2cnc3c(N)ncnc32)[C@H](O)[C@@H]1O.[Co]` [COENZYME B12], for which the “Inhibition (%)” value is 20.

Consider `COC(=O)[C@H]1[C@H]2C[C@H]3c4[nH]c5ccccc5c4CCN3C[C@@H]2CC[C@@H]1O` [CORYNANTHINE], for which the “Inhibition (%)” value amounted to 2. On to `CC(=O)Oc1c(C)cccc1C(=O)O` [CRESOPIRINE], for which the “Inhibition (%)” value is 1. With `Cl.NCCS` [CYSTEAMINE HYDROCHLORIDE], the “Inhibition (%)” value is recorded as 19. Take `C=CC(C1=CC(=O)C(OC)=CC1=O)c1ccc(O)cc1` (centres unmarked) [DALBERGIONE. 4-METHOXY-4'-HYDROXY-]: the “Inhibition (%)” value was 90.
